Test results published in patent US12384740B2, “Cationic lipids and transfection methods” (Factor Bioscience Inc., priority 2019, dated 2025).

What was measured:
Format in all cases: cell-based
[1] = test system: neonatal human epidermal keratinocytes (HEKn); test: Transfection of HEKn with GFP-encoding RNA complexed with lipid, mean fluorescence intensity per cell (Table 1); conditions: 20,000 HEKn per well, 24-well plate; 100 ng in vitro transcribed GFP RNA; 24 hours after transfection
Procedure: Stock solutions of lipid in ethanol were prepared at concentrations of between 5 mg/mL and 20 mg/mL and stored at −20° C. To perform transfections, nucleic acid was first diluted in DMEM (1 μg of nucleic acid in 50 μL of DMEM), then the desired amount of lipid stock solution was added. After adding the lipid, the solution was mixed thoroughly, and complexes were allowed to form for between about 5 minutes and about 25 minutes before adding to cells. For the experiments depicted in FIG. 1 through FIG. 6, the lipid was used without the acetone purification described in Example 5. Table 1 depicts the results of an experiment in which 20,000 neonatal human epidermal keratinocytes (HEKn) per well of a 24-well plate were transfected with 100 ng of in vitro transcribed RNA encoding green fluorescent protein (GFP) complexed with the indicated lipids. Fluorescence was measured 24 hours after transfection. Numbers indicate mean fluorescence intensity per cell (a.u.).

[2] = test system: primary human epidermal keratinocytes; test: Transfection of primary human epidermal keratinocytes with GFP RNA in 100% FBS (FIG. 1, 2, 7)
Procedure: (§1) FIG. 1 depicts primary human epidermal keratinocytes cultured in a 24-well plate, and transfected with 400 ng per well of in vitro transcribed RNA encoding green fluorescent protein (GFP) complexed with the indicated lipid and with the indicated mass ratio of lipid to RNA. Complexation was performed in DMEM, and transfections were performed in 100% fetal bovine serum (FBS). Images were taken eight hours following transfection.
FIG. 2 depicts the experiment of FIG. 1, with fluorescence measured at the indicated time points following transfection using DHDLinS.
FIG. 3 depicts the results of an experiment conducted as in FIG. 1, but with the indicated amounts of RNA (in nanograms) and the indicated lipid-to-RNA mass ratios (in micrograms of lipid per microgram of RNA). Images were taken 16 hours following transfection. As shown in the figure, all RNA amounts and lipid-to-RNA mass ratios tested yielded a fluorescent signal.
FIG. 7 depicts the results of an experiment conducted as in FIG. 3, but with DHDLinS purified by extraction with acetone as described in Example 5.
(§2) Stock solutions of lipid in ethanol were prepared at concentrations of between 5 mg/mL and 20 mg/mL and stored at −20° C. To perform transfections, nucleic acid was first diluted in DMEM (1 μg of nucleic acid in 50 μL of DMEM), then the desired amount of lipid stock solution was added. After adding the lipid, the solution was mixed thoroughly, and complexes were allowed to form for between about 5 minutes and about 25 minutes before adding to cells. For the experiments depicted in FIG. 1 through FIG. 6, the lipid was used without the acetone purification described in Example 5.

[3] = test system: human peripheral blood mononuclear cells (hPBMCs); test: Transfection of hPBMCs with GFP RNA (FIG. 4); conditions: 400 ng GFP RNA; 100% FBS; images 16 hours following transfection; both lipid-to-RNA mass ratios tested
Procedure: as §1
FIG. 4 depicts the results of an experiment conducted as in FIG. 1, but with human peripheral blood mononuclear cells (hPBMCs) instead of keratinocytes. Images were taken 16 hours following transfection. “LF3000” indicates cells transfected with LIPOFECTAMINE 3000 (cationic liposome formulation) commercial transfection reagent. “Neg.” indicates un-transfected cells.
as §2

[4] = test system: confluent layer of primary human epidermal keratinocytes; test: Transfection of a confluent layer of primary human epidermal keratinocytes with GFP RNA (FIG. 5A/5B); conditions: 400 ng GFP RNA; 100% FBS; images 24 hours following transfection; both lipid-to-RNA mass ratios tested
Procedure: as §1
FIG. 5A depicts the results of an experiment conducted as in FIG. 4, but with a confluent layer of primary human epidermal keratinocytes instead of hPBMCs. Images were taken 24 hours following transfection.
FIG. 5B depicts the experiment of FIG. 5A, shown at higher magnification.
as §2

[5] = test system: primary human adult dermal fibroblasts; test: Transfection of primary human adult dermal fibroblasts with GFP RNA (FIG. 6A/6B); conditions: 400 ng GFP RNA; 100% FBS; images 16 hours following transfection; both lipid-to-RNA mass ratios tested
Procedure: as §1
FIG. 6A depicts the results of an experiment conducted as in FIG. 4, but with primary human adult dermal fibroblasts instead of hPBMCs. Images were taken 16 hours following transfection.
FIG. 6B depicts the experiment of FIG. 6A, shown at higher magnification.
as §2

[6] = time course of FIG. 1 experiment, 400 ng GFP RNA, 100% FBS

| Compound | Fluorescence Intensity (mean fluorescence intensity per cell) [1] | also measured |
| --- | --- | --- |
| CCCCC/C=C\C/C=C\CCCCCCCCN(CCCCN(CCCCCCCC/C=C\C/C=C\CCCCC)CC(O)CN)CC(O)CN (centres unmarked) [DHDLinS, N^1,N^4-dilinoleyl-N^1,N^4-di-(2-hydroxy-3-aminopropyl)-diaminobutane] | 8009 a.u. | Transfection efficiency (GFP fluorescence images) ([2]; 400 ng GFP RNA per well, transfection in 100% FBS, images eight hours following transfection, lipid without acetone purification): transfected with high efficiency; Change of fluorescence signal with lipid-to-RNA mass ratio ([2]; DHDLinS purified by extraction with acetone, lipid-to-RNA mass ratios greater than 2 μg/μg, images 16 hours following transfection): minimal increase in fluorescence signal; Signal intensity and number of fluorescent cells over time [2, 6]: increased for several hours following transfection; Time of first detection of fluorescent signal following transfection [2, 6]: detected one hour following transfection; Transfection of hPBMCs (GFP fluorescence images) [3]: effectively transfected; Transfection of confluent keratinocytes (GFP fluorescence images) [4]: effectively transfected; Transfection of dermal fibroblasts (GFP fluorescence images) [5]: effectively transfected |
| CCCCC/C=C\C/C=C\CCCCCCCCN(CCCCCN(CCCCCCCC/C=C\C/C=C\CCCCC)CC(O)CN)CC(O)CN (centres unmarked) [Formula I (n = 5), N^1,N^5-dilinoleyl-N^1,N^5-di-(2-hydroxy-3-aminopropyl)-diaminopentane] | 7554 a.u. |  |
| CCCCC/C=C\C/C=C\CCCCCCCCN(CCCCCCN(CCCCCCCC/C=C\C/C=C\CCCCC)CC(O)CN)CC(O)CN (centres unmarked) [Formula I (n = 6), N^1,N^6-dilinoleyl-N^1,N^6-di-(2-hydroxy-3-aminopropyl)-diaminohexane] | 8596 a.u. |  |
| CCCCC/C=C\C/C=C\CCCCCCCCN(CCCCCCCCN(CCCCCCCC/C=C\C/C=C\CCCCC)CC(O)CN)CC(O)CN (centres unmarked) [Formula I (n = 8), N^1,N^8-dilinoleyl-N^1,N^8-di-(2-hydroxy-3-aminopropyl)-diaminooctane] | 9170 a.u. |  |
| CCCCC/C=C\C/C=C\CCCCCCCCN(CCCCCCCCCCN(CCCCCCCC/C=C\C/C=C\CCCCC)CC(O)CN)CC(O)CN (centres unmarked) [Formula I (n = 10), N^1,N^10-dilinoleyl-N^1,N^10-di-(2-hydroxy-3-aminopropyl)-diaminodecane] | 7842 a.u. |  |
| CCCCC/C=C\C/C=C\CCCCCCCCN(CCCCCCCCCCCCN(CCCCCCCC/C=C\C/C=C\CCCCC)CC(O)CN)CC(O)CN (centres unmarked) [Formula I (n = 12), N^1,N^12-dilinoleyl-N,N^12-di-(2-hydroxy-3-aminopropyl)-diaminododecane] | 5631 a.u. |  |
| N^1,N^2-dilinoleyl-N^1,N^2-di-(2-hydroxy-3-aminopropyl)-diaminoethane [Formula I (n = 2)] | 6623 a.u. |  |
